How the values were obtained:
Conditions in all cases: 48 h
NOMO1 [1] = test: AUC of viability dose-response curve (% viability x log10 dose units); higher = less sensitive
In short: (§1)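 Library compounds in DMSO were applied for 48 h at 37°C at 11 threefold doses (47 μM to 0.79 nM) to medium-adapted leukemia cells in 1536-well plates holding 500 or 1000 cells/well. Luminescence from CellTiter-Glo One was normalised plate by plate against DMSO and cell-free wells. Area under the curve came from trapezoidal integration of a log-logistic fit, after scaling curves that rose above full viability and discarding those that failed quality control. The fit had four parameters and used log10 doses.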

P12-Ichikawa [2] = test: as above
In short: as §1

SEM cells [3] = test: as above
In short: as §1

NOMO1 [4] = test: cell viability relative to DMSO control; higher = less cytotoxic
In short: (§2)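 Viability is expressed as a percentage of DMSO wells within each plate, and cell-free wells serve as background. Seeding densities in the 1536-well plates (5 μl) were 500 cells/well for NOMO1 or SEM leukemia cells and 1000 cells/well for P12-Ichikawa. Each line was adapted for at least four passages in each medium. Library compounds in DMSO were pin-dosed at 47 μM to 0.79 nM (11 points, threefold), and CellTiter-Glo One luminescence was read after 48 h at 37°C.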

P12-Ichikawa [5] = test: as above
In short: as §2

SEM cells [6] = test: as above
In short: as §2

COc1ccccc1[C@H](c1cccc2ccccc12)[C@@](C)(C#N)C(=O)N1CCC(c2cccc(C(F)(F)F)c2)CC1
AUC of viability dose-response curve
Conditions	NOMO1 [1]	P12-Ichikawa [2]	SEM cells [3]
HPLM + 10% dialyzed FBS	431	450	435
RPMI 5 mM glucose + 10% FBS	458	425	456
RPMI 5 mM glucose + 10% dialyzed FBS	427	432	434

cell viability [%]
Conditions	NOMO1 [4]	P12-Ichikawa [5]	SEM cells [6]
HPLM + 10% dialyzed FBS, 0.000781 µM	96.4	99.7	87.3
HPLM + 10% dialyzed FBS, 0.00234 µM	109	109	103
HPLM + 10% dialyzed FBS, 0.00702 µM	101	104	96.6
HPLM + 10% dialyzed FBS, 0.0211 µM	104	115	97.4
HPLM + 10% dialyzed FBS, 0.0632 µM	115	104	107
HPLM + 10% dialyzed FBS, 0.19 µM	102	113	103
HPLM + 10% dialyzed FBS, 0.569 µM	102	107	108
HPLM + 10% dialyzed FBS, 1.71 µM	93.7	107	99.2
HPLM + 10% dialyzed FBS, 5.12 µM	88.6	92.7	89.3
HPLM + 10% dialyzed FBS, 15.4 µM	64.3	84.5	54.4
HPLM + 10% dialyzed FBS, 46.1 µM	39.9	68.8	39.7
RPMI 5 mM glucose + 10% FBS, 0.000781 µM	102	108	92.3
RPMI 5 mM glucose + 10% FBS, 0.00234 µM	96	115	104
RPMI 5 mM glucose + 10% FBS, 0.00702 µM	101	104	102
RPMI 5 mM glucose + 10% FBS, 0.0211 µM	106	107	107
RPMI 5 mM glucose + 10% FBS, 0.0632 µM	99.6	119	102
RPMI 5 mM glucose + 10% FBS, 0.19 µM	103	99.8	114
RPMI 5 mM glucose + 10% FBS, 0.569 µM	99.7	107	105
RPMI 5 mM glucose + 10% FBS, 1.71 µM	107	92.4	119
RPMI 5 mM glucose + 10% FBS, 5.12 µM	97.6	80.3	111
RPMI 5 mM glucose + 10% FBS, 15.4 µM	85.2	72.7	84.7
RPMI 5 mM glucose + 10% FBS, 46.1 µM	60.3	60.7	56
RPMI 5 mM glucose + 10% dialyzed FBS, 0.000781 µM	100	108	83.3
RPMI 5 mM glucose + 10% dialyzed FBS, 0.00234 µM	98.9	108	91.5
RPMI 5 mM glucose + 10% dialyzed FBS, 0.00702 µM	98.6	117	100
RPMI 5 mM glucose + 10% dialyzed FBS, 0.0211 µM	99.3	112	99.4
RPMI 5 mM glucose + 10% dialyzed FBS, 0.0632 µM	104	122	90.8
RPMI 5 mM glucose + 10% dialyzed FBS, 0.19 µM	99.9	111	104
RPMI 5 mM glucose + 10% dialyzed FBS, 0.569 µM	86.4	108	102
RPMI 5 mM glucose + 10% dialyzed FBS, 1.71 µM	86.5	112	87.8
RPMI 5 mM glucose + 10% dialyzed FBS, 5.12 µM	83.1	88.7	93.9
RPMI 5 mM glucose + 10% dialyzed FBS, 15.4 µM	67.3	71.2	76.6
RPMI 5 mM glucose + 10% dialyzed FBS, 46.1 µM	53.1	47.9	54.9

CCOC(=O)c1c(C)n(C)c2ccc(O)cc12
AUC of viability dose-response curve
Conditions	NOMO1 [1]	P12-Ichikawa [2]	SEM cells [3]
HPLM + 10% dialyzed FBS	468	456	447
RPMI 5 mM glucose + 10% FBS	455	436	462
RPMI 5 mM glucose + 10% dialyzed FBS	461	443	463

cell viability [%]
Conditions	NOMO1 [4]	P12-Ichikawa [5]	SEM cells [6]
HPLM + 10% dialyzed FBS, 0.000781 µM	–	122	99.8
HPLM + 10% dialyzed FBS, 0.00234 µM	–	124	95.8
HPLM + 10% dialyzed FBS, 0.00702 µM	–	124	97.6
HPLM + 10% dialyzed FBS, 0.0211 µM	–	123	96
HPLM + 10% dialyzed FBS, 0.0632 µM	–	128	95.6
HPLM + 10% dialyzed FBS, 0.19 µM	–	122	105
HPLM + 10% dialyzed FBS, 0.569 µM	–	127	97
HPLM + 10% dialyzed FBS, 1.71 µM	–	123	103
HPLM + 10% dialyzed FBS, 5.12 µM	–	107	107
HPLM + 10% dialyzed FBS, 15.4 µM	–	109	113
HPLM + 10% dialyzed FBS, 46.1 µM	–	90.3	104
RPMI 5 mM glucose + 10% FBS, 0.000781 µM	–	–	115
RPMI 5 mM glucose + 10% FBS, 0.00234 µM	–	–	121
RPMI 5 mM glucose + 10% FBS, 0.00702 µM	–	–	107
RPMI 5 mM glucose + 10% FBS, 0.0211 µM	–	–	110
RPMI 5 mM glucose + 10% FBS, 0.0632 µM	–	–	101
RPMI 5 mM glucose + 10% FBS, 0.19 µM	–	–	119
RPMI 5 mM glucose + 10% FBS, 0.569 µM	–	–	108
RPMI 5 mM glucose + 10% FBS, 1.71 µM	–	–	120
RPMI 5 mM glucose + 10% FBS, 5.12 µM	–	–	114
RPMI 5 mM glucose + 10% FBS, 15.4 µM	–	–	124
RPMI 5 mM glucose + 10% FBS, 46.1 µM	–	–	111
RPMI 5 mM glucose + 10% dialyzed FBS, 0.000781 µM	115	–	115
RPMI 5 mM glucose + 10% dialyzed FBS, 0.00234 µM	120	–	117
RPMI 5 mM glucose + 10% dialyzed FBS, 0.00702 µM	115	–	106
RPMI 5 mM glucose + 10% dialyzed FBS, 0.0211 µM	113	–	118
RPMI 5 mM glucose + 10% dialyzed FBS, 0.0632 µM	125	–	113
RPMI 5 mM glucose + 10% dialyzed FBS, 0.19 µM	119	–	95.5
RPMI 5 mM glucose + 10% dialyzed FBS, 0.569 µM	124	–	106
RPMI 5 mM glucose + 10% dialyzed FBS, 1.71 µM	120	–	112
RPMI 5 mM glucose + 10% dialyzed FBS, 5.12 µM	108	–	113
RPMI 5 mM glucose + 10% dialyzed FBS, 15.4 µM	101	–	117
RPMI 5 mM glucose + 10% dialyzed FBS, 46.1 µM	96.6	–	116

COc1c(Cl)cc2c([nH]c3cnccc32)c1NC(=O)c1cccnc1C
AUC of viability dose-response curve
Conditions	NOMO1 [1]	P12-Ichikawa [2]	SEM cells [3]
HPLM + 10% dialyzed FBS	464	462	469
RPMI 5 mM glucose + 10% FBS	473	468	405
RPMI 5 mM glucose + 10% dialyzed FBS	471	454	465

cell viability [%]
Conditions	NOMO1 [4]	P12-Ichikawa [5]	SEM cells [6]
HPLM + 10% dialyzed FBS, 0.000781 µM	115	103	100
HPLM + 10% dialyzed FBS, 0.00234 µM	100	99.3	116
HPLM + 10% dialyzed FBS, 0.00702 µM	110	102	119
HPLM + 10% dialyzed FBS, 0.0211 µM	105	106	92
HPLM + 10% dialyzed FBS, 0.0632 µM	123	107	114
HPLM + 10% dialyzed FBS, 0.19 µM	124	109	103
HPLM + 10% dialyzed FBS, 0.569 µM	122	99	118
HPLM + 10% dialyzed FBS, 1.71 µM	115	99.1	108
HPLM + 10% dialyzed FBS, 5.12 µM	108	94.9	107
HPLM + 10% dialyzed FBS, 15.4 µM	102	94.7	103
HPLM + 10% dialyzed FBS, 46.1 µM	89.4	93.1	84.8
RPMI 5 mM glucose + 10% FBS, 0.000781 µM	99.8	107	–
RPMI 5 mM glucose + 10% FBS, 0.00234 µM	102	105	–
RPMI 5 mM glucose + 10% FBS, 0.00702 µM	98.4	107	–
RPMI 5 mM glucose + 10% FBS, 0.0211 µM	101	108	–
RPMI 5 mM glucose + 10% FBS, 0.0632 µM	101	112	–
RPMI 5 mM glucose + 10% FBS, 0.19 µM	108	108	–
RPMI 5 mM glucose + 10% FBS, 0.569 µM	111	96.1	–
RPMI 5 mM glucose + 10% FBS, 1.71 µM	108	105	–
RPMI 5 mM glucose + 10% FBS, 5.12 µM	98.2	110	–
RPMI 5 mM glucose + 10% FBS, 15.4 µM	102	105	–
RPMI 5 mM glucose + 10% FBS, 46.1 µM	99	96.9	–
RPMI 5 mM glucose + 10% dialyzed FBS, 0.000781 µM	84	102	93.6
RPMI 5 mM glucose + 10% dialyzed FBS, 0.00234 µM	105	110	95.3
RPMI 5 mM glucose + 10% dialyzed FBS, 0.00702 µM	103	104	108
RPMI 5 mM glucose + 10% dialyzed FBS, 0.0211 µM	96.1	96.9	97.5
RPMI 5 mM glucose + 10% dialyzed FBS, 0.0632 µM	98.9	106	110
RPMI 5 mM glucose + 10% dialyzed FBS, 0.19 µM	105	106	107
RPMI 5 mM glucose + 10% dialyzed FBS, 0.569 µM	115	97.7	101
RPMI 5 mM glucose + 10% dialyzed FBS, 1.71 µM	116	94.1	125
RPMI 5 mM glucose + 10% dialyzed FBS, 5.12 µM	98.2	95.4	106
RPMI 5 mM glucose + 10% dialyzed FBS, 15.4 µM	104	95.6	105
RPMI 5 mM glucose + 10% dialyzed FBS, 46.1 µM	101	82.8	90.1

Source: the supplement of paper PMC11451515
